From paper PMC6858373 (Scientific Reports, 2019)
Like-named read-outs stand apart in the source and are kept apart here.

Key:
[1] = tested on: Clone V cells
[2] = target: full-length P. pyralis luciferase (Photinus pyralis, UniProt P08659, K549A/L550V/N119G/N50D/S548I); assay type: cell-based
[3] = target: T1, FGF14:Nav1.6 C-tail complex (Homo sapiens, UniProt Q92915+Q9UQD0); assay: Split-luciferase complementation assay (LCA) in Clone V double stable HEK293 cells; assay type: cell-based
T1 construct: polymerase chain reaction (PCR) amplification of the FGF14 open reading frame (nt 1–855); C-terminal fragment of Nav1.6 (amino acids 1763–1976) fused with CD4ΔC-tail (amino acids 1–395); expressed in transfected cells

[4] = CC_NCI screening, full-length luciferase counter-screen luminescence, normalized to on-plate 0.3% DMSO controls
[5] = CC_NCI screening, full-length luciferase counter-screen, normalized to on-plate 0.3% DMSO controls
[6] = CC_NCI screening, LCA luminescence, biological replicate Set 1, normalized to on-plate 0.3% DMSO controls (n=16 per plate)
[7] = CC_NCI screening, LCA luminescence, biological replicate Set 2, normalized to on-plate 0.3% DMSO controls (n=16 per plate)
[8] = CC_NCI screening, LCA, biological replicate Set 1, normalized to on-plate 0.3% DMSO controls
[9] = CC_NCI screening, LCA, biological replicate Set 2, normalized to on-plate 0.3% DMSO controls
[10] = CC_NCI screening, average of Set 1 and Set 2, normalized to 0.3% DMSO controls
[11] = CC_NCI screening, normalized to on-plate 0.3% DMSO controls
[12] = CC_NCI screening, biological replicate Set 1, normalized to on-plate 0.3% DMSO controls
[13] = CC_NCI screening, biological replicate Set 2, normalized to on-plate 0.3% DMSO controls
[14] = CC_NCI screening, biological replicate Set 2, normalized to on-plate 0.3% DMSO controls (n=16 per plate)
[15] = average of Set 1 and Set 2, normalized to 0.3% DMSO controls

T1 sequence (Q92915 1-252 isoform Q92915-2): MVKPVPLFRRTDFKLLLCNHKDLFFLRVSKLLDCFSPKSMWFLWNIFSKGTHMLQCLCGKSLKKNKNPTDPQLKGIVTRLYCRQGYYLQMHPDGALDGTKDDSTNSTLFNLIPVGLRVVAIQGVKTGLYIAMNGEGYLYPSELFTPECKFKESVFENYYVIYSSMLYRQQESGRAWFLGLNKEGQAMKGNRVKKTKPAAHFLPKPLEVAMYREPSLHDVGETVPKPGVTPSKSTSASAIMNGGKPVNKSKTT
T1 sequence (Q9UQD0 1763-1976 limits assumed): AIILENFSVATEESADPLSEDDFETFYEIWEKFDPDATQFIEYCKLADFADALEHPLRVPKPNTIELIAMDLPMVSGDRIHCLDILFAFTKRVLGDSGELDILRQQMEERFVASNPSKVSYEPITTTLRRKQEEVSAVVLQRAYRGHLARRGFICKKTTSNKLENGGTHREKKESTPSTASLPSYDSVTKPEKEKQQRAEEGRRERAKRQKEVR
Chain of full-length P. pyralis luciferase (P08659 whole entry N50D/N119G/S548I/K549A/L550V, looked up): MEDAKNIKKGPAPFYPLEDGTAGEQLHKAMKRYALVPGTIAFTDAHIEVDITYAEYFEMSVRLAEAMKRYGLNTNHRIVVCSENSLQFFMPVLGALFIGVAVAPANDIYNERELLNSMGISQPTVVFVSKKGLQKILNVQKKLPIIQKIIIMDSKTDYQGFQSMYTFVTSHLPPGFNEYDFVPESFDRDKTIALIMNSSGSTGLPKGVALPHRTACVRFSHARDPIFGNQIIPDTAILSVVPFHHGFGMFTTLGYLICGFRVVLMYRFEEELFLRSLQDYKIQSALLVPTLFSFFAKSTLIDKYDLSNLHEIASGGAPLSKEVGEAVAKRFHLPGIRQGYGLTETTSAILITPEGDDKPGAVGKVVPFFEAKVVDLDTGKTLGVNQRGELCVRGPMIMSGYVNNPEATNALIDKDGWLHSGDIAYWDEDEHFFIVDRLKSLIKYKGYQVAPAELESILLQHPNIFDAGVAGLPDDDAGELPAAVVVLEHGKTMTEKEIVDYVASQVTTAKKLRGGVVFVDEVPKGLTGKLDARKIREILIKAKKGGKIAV

Row | Structure (SMILES) | Toxicity Assay % Fluor [1] | Toxicity Assay Z-score [1] | Luciferase Assay % Lum [2, 4] | Luciferase Assay Z-score [2, 5] | Split Luciferase Assay % Lum Set 1 [3, 6] | Split Luciferase Assay %Lum Set 2 [3, 7] | Split Luciferase Assay Z-score Set 1 [3, 8] | Split Luciferase Assay Z-score Set 2 [3, 9] | Split Luciferase Assay %Lum Avg [3, 10] | Toxicity Assay % Fluor ([1]; human, 16 h, 30 µM) | Toxicity Assay Z-score ([1]; human, 16 h, 30 µM) | other results
1 | CC(C)C[C@H](NC(=O)[C@H](Cc1ccccc1)NC(=O)c1cnccn1)B(O)O [Bortezomib] | 93.30% | -0.94 | 83.42% | -2.12 | 89.47% | 117.56% | -0.85 | 1.43 | 103.51% | – | – | –
2 | COc1cc(Nc2c(C#N)cnc3cc(OCCCN4CCN(C)CC4)c(OC)cc23)c(Cl)cc1Cl [Bosutinib] | 75.29% | -3.45 | 70.20% | -3.82 | 10.11% | 17.69% | -7.26 | -6.70 | 13.90% | – | – | –
3 | Cc1cc2c(F)c(Oc3ncnn4cc(OC[C@@H](C)O)c(C)c34)ccc2[nH]1 [Brivanib] | – | – | 64.23% | -4.58 | 34.03% | 35.37% | -5.33 | -5.26 | 34.70% | 92.51% | -1.05 | –
4 | C=CC(=O)Nc1cc2c(Nc3ccc(F)c(Cl)c3)ncnc2cc1OCCCN1CCOCC1 [CANERTINIB] | – | – | 50.65% | -6.32 | 28.59% | 34.33% | -5.77 | -5.34 | 31.46% | 84.09% | -2.22 | –
5 | COc1cc2c(Oc3ccc4[nH]c(C)cc4c3F)ncnc2cc1OCCCN1CCCC1 [CEDIRANIB] | – | – | 80.88% | -2.45 | 69.90% | 57.22% | -2.43 | -3.48 | 63.56% | 86.10% | -1.94 | –
6 | CN1CCN(c2ccc3nc(-c4c(N)c5c(F)cccc5[nH]c4=O)[nH]c3c2)CC1 [CHIR 258] | – | – | 93.31% | -0.86 | 66.64% | 66.58% | -2.70 | -2.72 | 66.61% | 81.15% | -2.64 | –
7 | c1cc(-c2cnn3cc(-c4ccc(OCCN5CCCCC5)cc4)cnc23)ccn1 [COMPOUND C] | – | – | – | – | – | – | – | – | – | – | – | Toxicity Assay % Fluor (CTB cell viability fluorescence) [1]: 115.42%; Toxicity Assay Z-score (CTB cell viability) [1]: 2.16; Luciferase Assay % Lum (full-length luciferase counter-screen) [2, 11]: 104.57%; Luciferase Assay Z-score (full-length luciferase counter-screen) [2, 11]: 0.59; Split Luciferase Assay Z-score Set 1 [3, 12]: 3.01; Split Luciferase Assay Z-score Set 2 [3, 13]: 1.26; Split Luciferase Assay %Lum Set 2 [3, 14]: 115.47%; Split Luciferase Assay %Lum Avg [3, 15]: 126.39%
8 | CC1=C2C[C@H]3[C@@H](CC=C4C[C@@H](O)CC[C@@]43C)[C@@H]2CC[C@]12O[C@@H]1C[C@H](C)CN[C@H]1[C@H]2C [CYCLOPAMINE] | – | – | – | – | – | – | – | – | – | – | – | Toxicity Assay % Fluor ([1]; human): 85.59%; Toxicity Assay Z-score ([1]; human): -2.01; Luciferase Assay Z-score [2]: 0.81; Split Luciferase Assay % Lum Set 1 [3]: 141.65%; Split Luciferase Assay %Lum Avg [3]: 122.84%; Split Luciferase Assay %Lum Set 2 [3]: 104.03%; Split Luciferase Assay Z-score Set 1 [3]: 3.37; Split Luciferase Assay Z-score Set 2 [3]: 0.33
9 | COc1cc2nccc(Oc3ccc(NC(=O)C4(C(=O)Nc5ccc(F)cc5)CC4)cc3)c2cc1OC [Cabozantinib] | – | – | 67.75% | -4.13 | 27.50% | 27.05% | -5.86 | -5.94 | 27.28% | 93.87% | -0.86 | –
10 | N.N.O=C([O-])C1(C(=O)[O-])CCC1.[Pt+2] [Carboplatin] | – | – | – | – | – | – | – | – | – | – | – | Toxicity Assay % Fluor (CTB cell viability fluorescence) [1]: 109.23%; Toxicity Assay Z-score (CTB cell viability) [1]: 1.29; Luciferase Assay % Lum (full-length luciferase counter-screen) [2, 11]: 96.43%; Luciferase Assay Z-score (full-length luciferase counter-screen) [2, 11]: -0.46; Split Luciferase Assay Z-score Set 1 [3, 12]: 0.82; Split Luciferase Assay % Lum Set 1 ([3]; CC_NCI screening, biological replicate Set 1, normalized to on-plate 0.3% DMSO controls (n=16 per plate)): 110.12%; Split Luciferase Assay Z-score Set 2 [3, 13]: 1.17; Split Luciferase Assay %Lum Set 2 [3, 14]: 114.43%; Split Luciferase Assay %Lum Avg [3, 15]: 112.28%
11 | Cc1ccc(-c2cc(C(F)(F)F)nn2-c2ccc(S(N)(=O)=O)cc2)cc1 [Celecoxib] | – | – | 60.07% | -5.11 | 43.81% | 44.73% | -4.54 | -4.50 | 44.27% | 88.16% | -1.66 | –
12 | Nc1nc(Cl)nc2c1ncn2[C@@H]1O[C@H](CO)[C@@H](O)[C@@H]1F [Clofarabine] | – | – | – | – | 146.00% | 131.08% | 3.72 | 2.53 | 138.54% | 94.15% | -0.82 | Luciferase Assay % Lum [2]: 100.89%; Luciferase Assay Z-score [2]: 0.11
13 | OCC1OC(O)CC(O)C1O (stereo not shown) [Compound 2DG] | 93.82% | -0.86 | 91.76% | -1.06 | 104.69% | 130.04% | 0.38 | 2.44 | 117.36% | – | – | –
14 | C=CCNC1=C2C[C@@H](C)C[C@H](OC)[C@H](O)[C@@H](C)/C=C(\C)[C@H](OC(N)=O)[C@@H](OC)/C=C\C=C(/C)C(=O)NC(=CC1=O)C2=O [Compound 17-AAG] | 88.49% | -1.61 | 80.45% | -2.50 | 45.98% | 41.61% | -4.37 | -4.75 | 43.80% | – | – | –
15 | CO[C@H]1/C=C\C=C(/C)C(=O)NC2=CC(=O)C(NCCN(C)C)=C(C[C@@H](C)C[C@H](OC)[C@H](O)[C@@H](C)/C=C(\C)[C@@H]1OC(N)=O)C2=O [Compound 17-DMAG] | 54.29% | -6.39 | 84.54% | -1.98 | 40.55% | 65.54% | -4.80 | -2.80 | 53.04% | – | – | –
